{"source": "BindingDB's records for doi:10.1021/jm201198w", "about": "(University of Kentucky, 2012)", "molecular_target": "Tyrosine-protein kinase SYK (Homo sapiens) (UniProt P43405)", "assay": "Inhibition of SYK"}
{"compound": "Nc1nc(Nc2ccc([C@H]3CC[C@H](N4CCOCC4)CC3)cc2)nn1-c1ccccn1", "values": [{"measurement": "Ki", "value": 0.22, "unit": "µM"}]}
